Measured values reported in patent publication US20070142227A1, “Systemic inducer composition for plants” (priority 2003, published 2007).

Key:
Nematodes [1] = experiment: Resistance induction in bananas against nematodes (Table I D); design: species or system banana; conditions: in vivo
nematodes [2] = experiment: Resistance induction in tomato plants, nematodes (Table I C); conditions: in vivo
phytopthora [3] = format: in vivo; conditions: tomato plants, chemical compound 1.5 kg per acre, extract 5 grams per acre, every 10 days
Black Sigatoka [4] = experiment: Resistance induction in bananas against Black Sigatoka (Table I D); design: species or system banana; conditions: in vivo
Foliar Infections = format: in vivo; conditions: strawberry plant, chemical compound 1.5 kg per acre, extract 5 grams per acre, once a week
foliar infection = format: in vivo; conditions: tomato plants, chemical compound 1.5 kg per acre, extract 5 grams per acre, every 10 days
nematode = experiment: Resistance induction in strawberry plant, root infection (Table I A); conditions: in vivo
Fire Blight [5] = experiment: Resistance induction in apple trees against fire blight (Table I B); conditions: in vivo
[6] = system: infected leaves and fruits; format: in vivo; conditions: strawberry every 10 days, foliar; chemical compound 25 grams, extract 5 grams
infection of leaves = format: in vivo; conditions: lettuce every 10 days, foliar; chemical compound 25 grams, extract 5 grams
early & late blight = format: in vivo; conditions: potatoes 4 times during season, foliar; chemical compound 25 grams, extract 5 grams
leaf infection = format: in vivo, tomato; conditions: tomatoes every week, foliar; chemical compound 25 grams, extract 5 grams
sigatoka = experiment: Specific microorganism extracts and chemical compounds, banana sigatoka (Table II); format: in vivo
mildew = experiment: Specific microorganism extracts and chemical compounds, grape mildew (Table II); format: in vivo, grapes
fire blight [7] = experiment: Specific microorganism extracts and chemical compounds, apple fire blight burn (Table II); format: in vivo, apples
infection of fruits = format: in vivo; conditions: blueberry every 15 days, foliar; chemical compound 25 grams, extract 5 grams
[8] = Growth effect, citrus (Table III); format: in vivo; conditions: foliar, 4 times in 1 year, chemical compound 3 kg, extract 5 grams
Protocol: (§1) These chemical compounds were tested at rates 0.25 to 3 kg per acre of citrus, strawberries, tomatoes and bananas by themselves to measure (A) fertilizer effect on foliar uptake, (B) growth effect, (C) resistance induction effect. These compounds were then combined with extracts of pseudomonas, subtilis species and actinomyces and applied to the similar set of plants and measured for A, B, and C as above. These extracts were also applied to a similar set of plants and measured for A, B, and C as above.

die back = experiment: Induction of resistance, citrus die back (Table III); format: in vivo; conditions: foliar, 4 times in 1 year, chemical compound 3 kg, extract 5 grams
Protocol: as §1

[9] = Growth effect, tomatoes (Table III); format: in vivo; conditions: every 10 days, foliar, chemical compound 3 kg, extract 5 grams
Protocol: as §1

phytopthora [10] = experiment: Induction of resistance, citrus phytopthora in roots (Table III); format: in vivo; conditions: foliar, 4 times in 1 year, chemical compound 3 kg, extract 5 grams
Protocol: as §1

[11] = Growth effect, bananas (Table III); format: in vivo; conditions: every week, foliar, for 6 months, chemical compound 3 kg, extract 5 grams
Protocol: as §1

leaf disease, botrylis = experiment: Induction of resistance, tomato leaf infection (Table III); format: in vivo; conditions: tomatoes, every 10 days, foliar; chemical compound 3 kg, extract 5 grams
Protocol: as §1

leaf disease = experiment: Induction of resistance, strawberry leaf disease (Table III); format: in vivo; conditions: every 10 days, chemical compound 3 kg, extract 5 grams
Protocol: as §1

phytopthora [12] = experiment: Induction of resistance, tomato phytopthora in roots (Table III); format: in vivo; conditions: tomatoes, every 10 days, foliar; chemical compound 3 kg, extract 5 grams
Protocol: as §1

[13] = Growth effect, strawberry (Table III); format: in vivo; conditions: every 10 days, chemical compound 3 kg, extract 5 grams
Protocol: as §1

Black Sigatoka [14] = experiment: Induction of resistance, banana Sigatoka (Table III); format: in vivo; conditions: bananas, every week, foliar, for 6 months; chemical compound 3 kg, extract 5 grams
Protocol: as §1

[15] = bananas every week for 6 months, foliar, chemical compound 25 grams alone

Row | Molecule | Results On Nematode Infection (Nematodes [1]) | Results In Foliar & Root Infections: nematode (nematodes [2]) | Results In Foliar & Root Infections: phytopthora (phytopthora [3]) | Results On Black Sigatoka: Leaves at Flowering (Black Sigatoka [4]) | Results in Foliar Infections (Foliar Infections) [% infection] | Results In Foliar & Root Infections: foliar infection (foliar infection) | Results in Root Infection (nematode infection) (nematode) [% nematode infection] | Results On Development of Fire Blight (Fire Blight [5]) [% fire blight] | infected leaves [6] [% infection] | infection of leaves (infection of leaves) [% infection] | infected leaves (early & late blight) (early & late blight) [% leaf infection] | infected leaves / leaf infection (leaf infection) [% infection] | infection of fruits (infection of fruits) | also measured
1 | O=[N+]([O-])[O-].O=[N+]([O-])[O-].[Ca+2] [calcium nitrate] | 7 Leaves at Flowering, High Nematode infection | 15% foliar infection, 15% phytopthora, 20% nematrode | 15% foliar infection, 15% phytopthora, 20% nematrode | 7 Leaves at Flowering, High Nematode infection | 20 | 15% foliar infection, 15% phytopthora, 20% nematrode | 20 | 20 | – | – | – | – | – | –
2 | O=C([O-])CC(O)(CC(=O)[O-])C(=O)[O-].O=C([O-])CC(O)(CC(=O)[O-])C(=O)[O-].[Ca+2].[Ca+2].[Ca+2] [calcium citrate] | – | – | – | – | – | – | – | – | 80 | 90 | 25 | 85 | 30% infection of fruits | infection (sigatoka, leaves) (sigatoka; in vivo): 85% infection-all leaves except youngest 3; infection-all leaves except youngest (number of youngest leaves) (sigatoka; in vivo): 85% infection-all leaves except youngest 3; mildew (mildew; in vivo): 55% mildew; fire blight burn (leaves) (fire blight [7]; in vivo): 20% fire blight burn
3 | potassium phosphite | – | – | – | – | – | – | – | – | 85 | 85 | 35 | 100 | 35% infection of fruits | Growth effect [8]: zero improvement; Induction of Resistance: die back (die back): die back as usual; Growth effect [9]: no increase; Induction of Resistance: phytopthora in roots (phytopthora [10]): zero resistance to phytopthora,; infection (sigatoka, leaves) (sigatoka; [15]): 90%; infection-all leaves except youngest (number of youngest leaves) (sigatoka; [15]): 4; mildew (mildew; grapes every 15 days, foliar, chemical compound 25 grams, extract 5 grams): 70% mildew; fire blight burn (leaves) (fire blight [7]; apples (2 yr old) 10 days post bud break & 1 week later, foliar, chemical compound 25 grams, extract 5 grams): 25% fire blight burn; Growth effect [11]: no increase; Induction of Resistance: leaf infection (leaf disease, botrylis): 35% leaf infection; Induction of Resistance: leaf disease, infection (leaf disease): suppression, 25% infection; Induction of Resistance: phytopthora in roots (phytopthora [12]): phytopthora zero control,; Growth effect [13]: no increase; Induction of Resistance: Sigatoka control, leaves with no symptoms (Black Sigatoka [14]): only 4 youngest leaves
4 | O=P(O)(O)O [potassium phosphate] | 7 Leaves at Flowering, High Nematode infection | 15% foliar infection, 15% phytopthora, 20% nematrode | 15% foliar infection, 15% phytopthora, 20% nematrode | 7 Leaves at Flowering, High Nematode infection | 20 | 15% foliar infection, 15% phytopthora, 20% nematrode | 20 | 18 | – | – | – | – | – | –
